Converted amounts (≈) assume the structure as drawn. “And” between values parts separate entries of the source, which are not always exact repeats. Equal values may be shown once.
Experiments:
[1] = biological target: elastase in CF patient sputum (Homo sapiens (Human), UniProt P08246); experiment: Elastase inhibition assay in CF patient sputum; type: biochemical
Method: (§1) Serially diluted compounds in DMSO were dispensed into a 384-well black opaque plate by Echo dispenser. 0.1 μg/mL human neutrophil elastase (EPC, Catalog# SE563, Owensville, Ms.) or human sputum diluted with assay buffer (100 mM HEPES, 500 mM NaCl, 0.02% Tween 20) was added into the 384-well plate, and was incubated with different compounds at different concentrations for 30 minutes at room temperature. The final concentration of DMSO in the reaction was 0.1%. Elastase substrate MeOSuc-AAPV-AMC (Bachem, Catalog #I-1270, Torrance, CA) of 100 μM final concentration was then added into the reaction system just before enzyme kinetics were read on PheraSTAR plate reader at excitation of 380 nm and emission of 460 nm with a 3-minutes interval for 30 minutes in total. Slope of fluorescence intensity vs. time representing the Vmax of enzyme activity was calculated with MARS software. % relative inhibition was calculated as: […]
(§2) IC50 was calculated based on the % relative inhibition curve using log(agonist) vs. response (three parameters) method with Prism software. All experiments were performed in triplicate for at least three independent times.
(§3) Human sputum was purchased from Discovery Life Sciences (Los Osos, CA). Human sputum was diluted 1:10 in volume with assay buffer (100 mM HEPES, 500 mM NaCl, 0.02% Tween 20) followed by vigorous vortexing. The 1:10 diluted human sputum was further diluted into 1:30, 1:90, 1:270, 1:810, and 1:2430. The elastase concentration was determined by elastase inhibition assay as described above. Specifically, a series of standards of human neutrophil elastase (starting at 2 μg/mL and further diluted 1:2 in volume) were prepared in the assay buffer. The samples and standards were plated in a 384-well black solid bottom plate; the substrate MeOSuc-AAPV-AMC of 100 μM final concentration was then added into the reaction system just before enzyme kinetics were read on PheraSTAR plate reader as mentioned above. The slope of enzymatic kinetic reading was calculated by MARS software. The elastase levels of the human sputum were calculated based on the standard curve.

in vitro [2] = experiment: in vitro
Method: 100 mM potassium phosphate buffer, pH 7.4. • 2. 10 mM MgCl2 • 3) Compound Dilution:
Intermediate solution was prepared by diluting 5 μL of compound or control stock solution (10 mM in DMSO) with DMSO (45 μL) and 1:1 Methanol/Water (450 μL) (concentration=100 μM, 45% MeOH). Working solution was prepared by diluting 50 μL of the intermediate solution with 450 μL of 100 mM potassium phosphate buffer, pH=7.4 (centration=10 μM, 4.5% MeOH). • 4) NADPH regenerating system (final Isocitric dehydrogenase concentration=1 unit/mL at incubation) comprised:
10 μL/well of compound working solution or control working solution was added to all plates (T0, T5, T10, T20, T30, T60, NCF60) except the matrix blank. 80 μL/well of microsome solution was added to every plate. The mixtures of microsome solution and compound were incubated at 37° C. for about 10 min. 10 μL/well of NADPH regenerating system (pre-warmed to 37° C.) was then added to every plate to start the reaction. […] For NCF60 (abbreviation of no co-factor) no NADPH regenerating system was added, but was replaced by 10 μL/well of potassium phosphate buffer (100 mM, pH 7.4); the resulting mixture was incubated at 37° C. for 1 h.
The reactions were then terminated with the stop solution (cold at 4° C.) containing 100 ng/mL Tolbutamide and 100 ng/mL Labetalol ([…]). The sampling plates were shaken for approximately 10 minutes, then were centrifuged at 4000 rpm for 20 min at 4° C. While centrifuging, 8 new 96 well plates were loaded with […] of HPLC grade water. 100 μL of supernatant was finally added to 300 μL of HPLC grade water and mixed for LC/MS/MS analysis.
The equation of first order kinetics was used to calculate T1/2 and CIint(mic): […]

Kinetic Solubility Test = type: physicochemical
Method: The stock solution of each compound (10 μL; 10 mM in DMSO) was diluted with phosphate buffer solution (490 μL; 50 mM, pH 6.8). The resulting mixture was shaken for 24 h. Samples were then filtered.

Plasma Stability Assay = type: in vitro ADME, mouse
Method: Propantheline was used as the reference compound in this assay; all stock solutions were stored at −40° C. before use. • 2) Test system: CD-1 Mouse Plasma from a minimum of 20 male individuals were obtained from BioreclamationlVT (Catalog #: […]2-M; Batch #: MSE244515). EDTA-K2 was used as the anticoagulant. Procedure:
The frozen plasma was thawed in a water bath at 37° C. prior to the experiments. The plasma was centrifuged at 4000 rpm for 5 min and the clots were removed if necessary.
The pH was adjusted to 7.4±0.1 as necessary. An intermediate solution (1 mM) was prepared and a 100 μM dosing solution was prepared by diluting 10 μL of the intermediate solution with 90 μL 45% MeOH/H2O. Duplicate of test samples were made by mixing 98 μL of blank plasma with 2 μL of dosing solution (100 μM) to achieve the final concentration of 2 μM. Samples were incubated at 37° C. At each time point (0, 10, 30, 60, and 120 min), 400 μL of stop solution (consisting of 200 ng/mL tolbutamide and 20 ng/mL buspirone in 50% MeOH/CH3CN) was added to precipitate protein under thorough mixing. The sample plates were then centrifuged at 4,000 rpm for 10 min. An aliquot of supernatant (100 μL) was transferred from each well and mixed with 200 of μL ultrapure water. The samples were shaken at 800 rpm for about 10 min before LC-MS/MS analysis.
Data analysis: The % remaining of test compound after incubation in plasma was calculated using following equation: Remaining=100×(PAR at Tn/PAR at T0) where PAR is the peak area ratio of analyte versus internal standard (IS) and The appointed incubation time points are T0 (0 min), Tn (n=0, 10, 30, 60, 120 min).
LC-MS/MS condition: Each compound was analyzed by LC/MS using an ACE 5-phenyl 50×2.1 mm column (Part No. ACE-125-0502) with 0.1% formic acid in water and 0.1% formic acid in acetonitrile as the mobile phases. Tobultamide was used as the internal standard. Data collected were processed by Analyst 1.6.2 software and MultiQuant 3.0.2 software.

[3] = biological target: elastase in COPD patient sputum (Homo sapiens (Human), UniProt P08246); experiment: Elastase inhibition assay in COPD patient sputum; type: biochemical
Method: as §1, §2, §3

Caco-2 cells = experiment: in vitro; conditions: Caco-2
Method: (§4) Digoxin, fenoterol, and propranol were used as standards respectively. Transport Method:
(§5) The transport buffer used in the study was HBSS with 10 mM HEPES at pH 7.40±0.05. Compounds were tested at 2 μM bi-directionally in duplicates. Digoxin was tested at […] bi-directionally in a duplicate, while fenoterol and propranolol were tested at 2 μM in A(apical) to B (basolateral) direction in duplicates. The final DMSO concentration was adjusted to less than 1%. The plate was incubated for 2 hours in a CO2 incubator at 37±1° C., with 5% CO2 at saturated humidity without shaking. All samples, after mixing with acetonitrile containing internal standard, were centrifuged at 4000 rpm for 20 min. Subsequently,100 μL supernatant solution was diluted with 100 μL distilled water for LC/MS/MS analysis. Concentrations of test and control compounds in starting solution, donor solution, and receiver solution were quantified by LC/MS/MS methodologies, using peak area ratio of analyte/internal standard. After transport assay, lucifer yellow rejection assay was applied to determine the Caco-2 cell monolayer integrity.
(§6) Data analysis: The apparent permeability coefficient Papp (cm/s) was calculated using the equation:
(§7) The efflux ratio was calculated using the equation: Efflux ratio=Papp(BA)/Papp(AB)
(§8) Percent recovery was calculated using the equation: % Recovery=100×[(Vr·Cr)+(Vd·Cd)]/(Vd·C0) Where Vd is the volume in the donor chambers (0.075 mL on the apical side, 0.25 mL on the basolateral side); Cd and Cr are the final concentrations of transport compound in donor and receiver chambers, respectively.

[4] = biological target: T1, human neutrophil elastase (Homo sapiens (Human), UniProt P08246); experiment: Elastase inhibition assay, purified human neutrophil elastase; type: biochemical
[5] = biological target: T1, human neutrophil elastase; experiment: as above; type: biochemical; conditions: for IC50: read-out: IC50
Method: as §1, with “Elastase substrate MeOSuc-AAPV-AMC (Bachem, Catalog #I-1270, Torrance, CA) of 100 μM final concentration was then added into the reaction system just before enzyme kinetics were read on PheraSTAR plate reader at excitation of 380 nm and emission of 460 nm with a 3-minutes interval for 30 minutes in total.” left out
as §2

[6] = biological target: T1, human neutrophil elastase; experiment: Time dependence of elastase inhibition; type: biochemical
Method: The procedure for the elastase inhibition assay was followed with slight modifications. 0.1 μg/mL human neutrophil elastase was incubated with a range of concentrations of inhibitors for 5, 15, 30 and 60 minutes before substrate MeOSuc-AAPV-AMC of 100 μM final concentration was added. Enzyme kinetics were read on PheraSTAR plate reader and IC50 was calculated with the method described above.

in vitro [7] = conditions: human
Method: as §4, §5, §6, §7, §8

[8] = mouse, microsomes, 1 h, 1 μM, pH 7.4

T1 sequence (P08246 30-247): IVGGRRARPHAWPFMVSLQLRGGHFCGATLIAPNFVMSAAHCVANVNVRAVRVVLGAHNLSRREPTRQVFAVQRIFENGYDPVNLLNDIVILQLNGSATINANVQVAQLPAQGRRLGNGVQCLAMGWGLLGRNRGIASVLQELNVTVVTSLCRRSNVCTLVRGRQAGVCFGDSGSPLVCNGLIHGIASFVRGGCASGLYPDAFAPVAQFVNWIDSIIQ
Sequence of elastase in CF patient sputum (P08246 30-267): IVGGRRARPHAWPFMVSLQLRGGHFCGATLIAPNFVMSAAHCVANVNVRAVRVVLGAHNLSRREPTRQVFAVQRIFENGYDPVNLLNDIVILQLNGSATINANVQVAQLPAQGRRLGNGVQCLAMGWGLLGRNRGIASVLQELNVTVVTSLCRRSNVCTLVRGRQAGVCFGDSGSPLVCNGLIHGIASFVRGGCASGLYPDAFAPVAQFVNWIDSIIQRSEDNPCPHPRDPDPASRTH
Sequence of elastase in COPD patient sputum (P08246 30-267): as above

## COC(=O)N[C@H](C(=O)N1CCC[C@H]1C(=O)N[C@H](B(O)O)C(C)C)C(C)C [Compound 50, ((R)-1-((S)-1-((methoxycarbonyl)-L-valyl)pyrrolidine-2-carboxamido)-2-methylpropyl)boronic acid]
[1]; CF sputum
  IC50: 0.51 ± 0.04 nM
In vitro [2]; mouse, 1 μM, pH 7.4
  Extraction ratio: <0.3
In vitro [2]; [8]
  Remaining (*NCF = 60min): 99.0%
  Remaining (T = 60 min): 78.5%
In vitro [2]; mouse, microsomes, pH 7.4
  CLint scaled at 1 μM: < 38 mL/min/kg
  half-life at 1 μM: > 2.42 h
  microsomal CLint at 1 μM: < 9.6 µL/min/mg
Kinetic Solubility Test; aqueous buffer, kinetic from dmso stock, phosphate buffer pH 6.8, 24 h
  solubility kinetic at 24 h: > 74.2 µg/mL and > 200 µM
Plasma Stability Assay; CD-1 Mouse Plasma, 0 min, 2 μM, 37° C.
  % Remaining (mean): 100.0%
Plasma Stability Assay; CD-1 Mouse Plasma, 10 min
  % Remaining (mean): 100.5%
Plasma Stability Assay; CD-1 Mouse Plasma, 30 min
  % Remaining (mean): 105.2%
Plasma Stability Assay; CD-1 Mouse Plasma, 60 min
  % Remaining (mean): 88.0%
Plasma Stability Assay; CD-1 Mouse Plasma, 120 min
  % Remaining (mean): 76.7%
[3]
  IC50: 0.274 ± 0.004 nM

## CC(C)[C@H](NC(=O)c1ccc(C(=O)NS(=O)(=O)c2ccc(Cl)cc2)cc1)C(=O)N1CCC[C@H]1C(=O)N[C@H](C(=O)C(F)(F)F)C(C)C [Compound 51a]
Caco-2 cells
  Caco-2 (Papp A − B): <0.16 10^−6 cm/s
  Caco-2 (Papp B − A): 0.61 10^−6 cm/s
  Mean Papp A to B: <0.08 10^−6 cm/s
  Mean Papp B to A: <0.12 10^−6 cm/s
  Mean Recovery % A to B: <74.15%
  Mean Recovery % B to A: <90.87%
In vitro [2]; MLM 0.5
  CLint(liver): 76.6 mL/min/kg
In vitro [2]; MLM 0.5, no co-factor
  Remaining (*NCF = 60min): 91.7%
In vitro [2]; MLM 0.5, with NADPH regenerating system
  Remaining (T = 60 min): 52.2%
Kinetic Solubility Test; phosphate buffer pH 6.8, 24 h
  Kinetic Solubility pH = 6.8: 119.75 μg/mL
  solubility kinetic at 24 h: 174.28 µM (≈ 120 µg/mL)
Kinetic Solubility Test; summary table
  Kinetic solubility (pH 6.8): 174.28 μm
Plasma Stability Assay; mouse, plasma, 10 min
  % Remaining (mean): 99.0%
Plasma Stability Assay; mouse, plasma, 0.5 h
  % Remaining (mean): 109.1%
Plasma Stability Assay; mouse, plasma, 1 h
  % Remaining (mean): 99.5%
Plasma Stability Assay; mouse, plasma, 2 h
  % Remaining (mean): 106.6%
  CD-1 Mouse Plasma % Remaining @ 2 hr: 106.6%

## Cc1c(-c2ccnn2-c2ccc(C#N)cc2)cc(C(=O)NCC(O)CNC(=O)c2cc(-c3ccnn3-c3ccc(C#N)cc3)c(C)n(-c3cccc(C(F)(F)F)c3)c2=O)c(=O)n1-c1cccc(C(F)(F)F)c1 [Compound 58]
[1]; CF sputum
  IC50: 203 ± 31.2 nM
  LipE: 0.77
[1]; sputum samples of CF and COPD patients
  inhibitory activity in patient sputum versus purified HNE (in words): potencies diminished drastically
[4]; 2.5, 25, 50 and 100 μM substrate, mixed model
  Ki: 0.0027 nM
[4]; purified HNE
  Ki: 0.0027 nM
[5]; Purified NHE
  LipE: 5.04
[5]; Purified NHE, 30 minutes incubation at room temperature, 100 μM substrate
  IC50: 0.0111 ± 0.0002 nM
[5]; purified HNE
  IC50: 0.011 nM
[6]; 5 min incubation with inhibitor
  IC50: 0.011 nM
[6]; 15 min incubation with inhibitor
  IC50: 0.004 nM
[6]; 30 min incubation with inhibitor
  IC50: 0.0026 nM
[6]; between 5-60 minutes
  increase in potency with increasing incubation times: 55 fold
[3]
  IC50: 16.2 ± 2.13 nM
  LipE: 1.87

## CC(C)NCC(O)COc1cccc2ccccc12 (centres unmarked) [Propranolol]
In vitro [7]; Caco-2, pH 7.4
  Papp A→B at 120 min, 2 μM: 19.8 ×10⁻⁶ cm/s
In vitro [7]; Caco-2, pH 7.4, Mean Recovery % A to B
  recovery at 2 h, 2 μM: 69.2%

Source: US12415819B2, “Cu- and Ni-catalyzed decarboxylative borylation reactions” (The Scripps Research Institute, priority 2017, dated 2025)
